Entries after “also recorded” stand apart in the source; their conditions may differ. Non-standard residues stand in square brackets, D forms with d. Residues, ends and D or L forms follow the SMILES beside them. *: point of attachment. NBD = O=[N+]([O-])c1ccc(*)c2nonc12; Nle = CCCC[C@H](N)C(=O)O; Ahx = NCCCCCC(=O)O
How the values were obtained:
[1] = tested on: Methicillin sensitive S. aureus, K. pneumoniae and P. aeruginosa; assay: Bacterial affinity: fluorescence retention following a PBS wash (confocal); type: cell-based; conditions: 10 µM, two gentle PBS washes, three bacterial species, n=3
Method: Three compounds (UBI-3, UBI-5 and UBI-10) were assessed for further evaluation. […] In vitro affinity of bacterial binding was assessed by incorporating a wash step in the live confocal imaging protocol with a panel of bacteria with the ‘wash-off’ representing a surrogate indicator of Smartprobe-bacterial labelling affinity. […] UBI-10, therefore, was assessed further in a clinically relevant biological system.
Figure S4. Quantified fluorescence of confocal microscopy images of the compounds UBI-3, UBI-5 and UBI-10 on three bacteria and fluorescence retention following a PBS wash. Quantification of fluorescence intensity of (A) Methicillin sensitive S. aureus, (B) K. pneumoniae and (C) and P. […]
intensity following a PBS wash. […]
(§1) Confocal Analysis and Fluorescence Quantification: 8-Well Lab-Tek II Confocal Chambers (VWR, PA, USA) were coated in fibronectin (for neutrophil experiments) or poly-d-lysine (for bacteria) at 37 °C for 20 minutes, then washed in PBS prior to bacterial innoculation. For co-culture assays, neutrophils were seeded on fibronectin coated wells at 1 x 10^5 neutrophils per well for 20 minutes and non-adherent neutrophils aspirated. Bacteria were added to each chamber to a final concentration of 0.5 OD595 nm with the desired final concentration of Smartprobe. A laser-scanning confocal imaging system (LSM510; Carl Zeiss, Jena, Germany), incorporating an upright Axioskop FS2 microscope (63× objective) was used for image acquisition and processing. Exposure to 488 nm light was limited to 5% of the maximum laser power in order to minimize toxicity. ‘Green’ fluorescence (for FAM and NBD) was excited with a dedicated 488 nm line and emitted light detected with meta detector (500-530 nM).
(§2) Syto nuclear and dyes were excited with a dedicated 543 nm line, and emitted light detected with meta detector (570-610 nM). Fields of view were chosen based on the counterstain and at least three fields of view were recorded for each condition. For affinity assays, following initial imaging, the fluid was aspirated and two gentle washes with PBS were performed. The chamber was re-imaged on confocal.
(§3) Analysis was with ImageJ (version 1.46r, National Institutes of Health, USA); the Syto channel was automatically thresholded (MaxEntropy, with a set threshold 0-47) and an ROI generated from this. The […]
(§4) mean fluorescence intensity on the probe channel within this ROI was quantified. Data presented represents the mean of three experiments, from each of which three separate fields of view were assessed. All experiments were performed at least three times unless otherwise stated and results expressed as mean ± SEM. Data was analysed by unpaired t-test and significance was determined as p<0.05 (GraphPad Prism version 5.01 for Windows, GraphPad Software, San Diego California USA).
(§5) Ex vivo Human Lung and FCFM Procedure: Human lung samples were obtained from patients undergoing surgical resection for lung carcinoma. All images were obtained on sections of normal lung away from the cancerous growth. Informed consent was obtained and the study was approved by the Regional Ethics Committee. Samples were taken fresh from the operating theatre, dissected into 4mm sections and placed in wells of 96 well plate. Bacteria were pre-labelled with Smartprobe or Calcein AM and co-cultured in the well with a maximum volume of 100µl. […]

[2] = tested on: bacteria in ex vivo human lung tissue; assay: Fibered confocal fluorescence microscopy (FCFM) of labelled bacteria on ex vivo human lung tissue; conditions: 10 μM, bacteria pre-labelled, 488 nm FCFM, n = 3
Method: Since NBD is also excited at 488 nm, the utility and detection of the Smartprobes with FCFM was next evaluated. […] These were then delivered onto ex vivo human lung tissue fragments.
Fig. 10 UBI-10 can be used to image bacteria in ex vivo human lung tissue by fibered confocal fluorescence microscopy (FCFM). FCFM imaging of bacteria in suspension (upper panels) or when co-incubated with ex vivo human lung tissue (lower panels). […] All compounds at 10 μM, n = 3. […]
as §4
as §5, with “plate.” for “plate. Bacteria were pre-labelled with Smartprobe or Calcein AM and co-cultured in the well with a maximum volume of 100µl.”

[3] = tested on: methicillin-sensitive Staphylococcus aureus; assay: Confocal labelling of MSSA with quantified fluorescence; type: cell-based
Method: Fig. 6 Confocal Images of compounds UBI-3 to 9 with quantified fluorescence. Panels show methicillin-sensitive Staphylococcus aureus incubated with UBI-3 to 9 (all 10 μM) with quantification of bacterial fluorescence normalized to UBI-3 (bars represent mean (±SEM), n ≥ 3, ns = not significant, *** = p < 0.001, * = p < 0.05, scale bar = 10 μm).
Fig. 8 Confocal images and quantification of cyclic variants when compared to UBI-3. Panels show methicillin-sensitive Staphylococcus aureus incubated with cyclic UBI compounds (all 10 μM) with quantification of bacterial fluorescence normalized to UBI-3 (bars represent mean (±SEM), n ≥ 3, ns = not significant, ** = p < 0.01, scale bar = 10 μm).
Bacterial Culture and Labelling: Bacteria used were K. pneumoniae (ATCC BAA1706) ATCC, E. coli (ATCC 25922) ATCC, A. baumannii (J3433) Clinical Isolate, P. aeruginosa (J3284) Clinical Isolate, Methicillin Resistant S. aureus (MRSA) (ATCC25923) ATCC and Methicillin Sensitive S. aureus (MSSA) (ATCC 252) ATCC. All bacteria were grown on Lysogeny broth (LB) agar and from a single bacterial colony placed into 10ml of LB and incubated at 37°C for 16 hours in an orbital shaker.
Cultures were centrifuged at 4000rpm for 5 minutes and the pellet resuspended in 1ml phosphate buffered saline (PBS, Life Technologies). Following three further washes in PBS the cultures were reconstituted to 1 OD595 nm. Bacteria were counterstained with 5µM Syto 82 orange fluorescent nucleic acid stain (Invitrogen, CA, USA) in a shaking heat block at 37 °C for 20 minutes. For FCFM bacteria were stained with 1µM Calcein AM (Sigma, MO, USA) for 30 minutes at 37 °C. Counterstained bacteria were washed in PBS to remove excess dye. […]
as §1, §2, §3, §4
Ex vivo Human Lung and FCFM Procedure: Human lung samples were obtained from patients undergoing surgical resection for lung carcinoma. All images were obtained on sections of normal lung […]

[4] = 0.5 μM to 50 μM, methicillin sensitive S. aureus

Row | SMILES | fluorescence following labelling and a PBS wash [1] | detection of labelled bacteria by FCFM on ex vivo human lung tissue [2] | concentration dependence of bacterial labelling [3, 4] | relative fluorescence of labelled bacteria compared with the other compounds [3, 4] | bacterial labelling (fluorescence compared with UBI-3) ([3]; MSSA, 10 μM, fluorescence normalized to UBI-3, mean ± SEM, n ≥ 3)
1 | CCCC[C@@H]1NC(=O)[C@H](CCCNC(=N)N)NC(=O)[C@H](CCCNC(=N)N)NC(=O)[C@H](CCCCN)NC(=O)[C@H](C)NC(=O)[C@H](CCCNC(=N)N)NC(=O)CNC(=O)[C@H]([C@@H](C)O)NC(=O)[C@@H](NC(=O)CCCCCNc2ccc([N+](=O)[O-])c3nonc23)CCCCNC(=O)CNC(=O)[C@H](CCCNC(=N)N)NC(=O)[C@H](CCCNC(=N)N)NC(=O)[C@H](CC(N)=O)NC(=O)[C@H](Cc2ccc(O)cc2)NC(=O)[C@H](CCC(N)=O)NC1=O [UBI-10] | retains a significant fluorescence intensity | readily identified above elastin autofluorescence; also recorded: can image bacteria by FCFM in the presence of ex vivo human lung | concentration dependent manner; also recorded: concentration dependent increase in bacterial fluorescence | higher than UBI-3 or UBI-5 labelled bacteria; also recorded: higher fluorescence (per molar equivalents) at all concentrations tested | significantly higher signal; also recorded: improved bacterial labelling
2 | CCCC[C@H](NC(=O)[C@H](CCCNC(=N)N)NC(=O)[C@H](CCCNC(=N)N)NC(=O)[C@H](CCCCN)NC(=O)[C@H](C)NC(=O)[C@H](CCCNC(=N)N)NC(=O)CNC(=O)[C@@H](NC(=O)CCCCCNc1ccc([N+](=O)[O-])c2nonc12)[C@@H](C)O)C(=O)N[C@@H](CCC(N)=O)C(=O)N[C@@H](Cc1ccc(O)cc1)C(=O)N[C@@H](CC(N)=O)C(=O)N[C@@H](CCCNC(=N)N)C(=O)N[C@@H](CCCNC(=N)N)C(N)=O [UBI-3] ({NBD-Ahx}-TGRAKRR[Nle]QYNRR-NH2) | significantly lower fluorescence | immediately lost their fluorescent signal; also recorded: can image bacteria in suspension but not in the presence of ex vivo human lung | concentration dependent manner; also recorded: concentration dependent increase in bacterial fluorescence |  | 
